Experimental data published in patent publication US20250375464A1, “FORMULATIONS FOR MODULATING MYC EXPRESSION” (FLAGSHIP PIONEERING INNOVATIONS V, INC., priority 2022, published 2025).

Key:
Hep 3B tumors = assay: Hep 3B subcutaneous xenograft in nude mice, tumor volume
Experimental: In this example, 0.6 mg/ml LNP (MC3) formulated effector (dCas9-MQ1/GD-17) was delivered to tumor sites by intratumoral injection on day 1 and day 7 (20 μl/mice) in the test group animals. The control group mice were injected at the tumor site either with PBS or with 0.6 mg/ml LNP (MC3) control effector dCas9/GD-SafeHarbor (20 μl/mice). Each control and test group consisted of 6 animals having SubQ Hep3B Xenografts (250 mm^3). Changes in tumor volume for each group was measured every 3 days for 15 days. At the end of 15 days, the changes in mean tumor volume were measured using Paired T-test and was plotted.
(§1) Hep 3B tumor cells were implanted into the left flank of thirty female nude mice to induce tumor. Changes in tumor volume was measured and the treatment initiated when mean tumor volume reached approximately 100-150 mm^3. Mice were divided into treatment and control groups so that mean tumor volume in each group were approximately equal. Control groups were injected either with PBS or with MYCi975, a small molecule comparator. The mice in each group were injected intratumorally with PBS (every 5 days for 3 doses then switched to IV for 2 doses), intravenously with ZF9-MQ1 (every 5 days at 3 mg/kg) or intraperitoneally with MYCi975 (once daily for 5 days/week). All animals were weighed daily and assessed visually. Changes in tumor volume for each group were measured 3 times per week. Over the course of 22 days, the changes in body weight from baseline and the mean tumor volume were measured using Paired T-test and was plotted (FIG. 14A-B).
Hep 3B tumor cells were implanted into the left flank of seventy-two female nude mice to induce tumor. Changes in tumor volume was measured and the treatment initiated when mean tumor volume reached approximately 200 mm^3. Mice were divided into nine treatment groups (8 mice each) so that mean tumor volume in each group was approximately equal. The mice in each group were injected intravenously with PBS (every 5 days for 3 doses then every 3 days for 3 doses), ZF9-MQ1 at 1 mg/kg and 3 mg/kg (every 5 days for 3 doses then every 3 days for 3 doses), co-formulated ZF9-MQ1+ZF3-KRAB at 1 mg/kg and 3 mg/kg (every 5 days for 3 doses then every 3 days for 3 doses), negative control mRNA at 1 mg/kg and 3 mg/kg (every 5 days for 3 doses then every 3 days for 3 doses), intraperitoneal with MYCi975 at 100 mg/kg (once daily for 5 days per week) or intraperitoneal with cisplatin at 1 mg/kg (once every 15 days). All animals were weighed daily and assessed visually. Changes in tumor volume were measured 3 times per week.
Disease was induced in female nude mice by the implantation of Hep 3B tumor cells into the left flank. […] All animals were weighed daily and assessed visually. Tumors sizes were measured 3 times per week. […]

HEPG2 tumors = assay: HepG2 subcutaneous xenograft in nude mice; assay type: in vivo; design: dose or concentration left out as unconfirmed
[1] = Overall animal (body) weight in the tumor studies (FIGS. 14-16, 20); assay type: in vivo, mice; settings: doses as in the respective tumor study
Hep3B-luc tumors = assay: Orthotopic Hep3B-luc model, tumor bioluminescence; assay type: in vivo, mice (Fox Chase CB17 SCID; nude); settings: nude mice
Experimental: Tumor progression was measured by luminescence. […] It is unclear whether this is related to treatment. […] Statistically significant differences were observed between treatment groups.
Sorafenib was given orally (PO) daily (QD) as a standard of care control. Tumor progression was measured by luminescence. No animal deaths were noted.

SKHEP1 tumors = assay: SKHEP1 subcutaneous xenograft in nude mice; assay type: in vivo; settings: 50 mg/kg orally daily
Experimental: Animals were dosed every 5 days.
Sorafenib was given daily at 50 mg/kg.

[2] = Body weight and tolerability of tumor bearing mice
Experimental: as §1
All animals were weighed daily and assessed visually.

| Compound | increase in tumor volume (Hep 3B tumors; Example 44, 25 mg/kg alone, 12 days) | tumor growth (HEPG2 tumors) | tumor growth relative to PBS controls (Hep 3B tumors; 50 mg/kg orally every day (Example 35)) | tumor growth relative to PBS controls (Hep 3B tumors; Example 40, 50 mg/kg orally daily) | tumor growth relative to PBS control (Hep 3B tumors; Example 43, 25 mg/kg QD alone, 16 days) | overall animal (body) weight, result in words [1] | tumor luminescence relative to PBS controls (Hep3B-luc tumors; Example 45, 50 mg/kg orally daily) | tumor luminescence relative to PBS controls (Hep3B-luc tumors; Example 46, 50 mg/kg PO QD) | tumor growth (SKHEP1 tumors) | weight gain ([2]; SK-HEP-1 subcutaneous, 50 mg/kg orally daily) | body weight ([2]; orthotopic Hep3B-luc, SCID mice, ZF9-MQ1+ZF3-KRAB 1.5-6 mg/kg every 5 days, sorafenib 50 mg/kg daily orally) |
| --- | --- | --- | --- | --- | --- | --- | --- | --- | --- | --- | --- |
| Cc1sc2c(c1C)C(c1ccc(Cl)cc1)=N[C@@H](CC(=O)OC(C)(C)C)c1nnc(C)n1-2 [JQ1] | did not significantly inhibit |  |  |  |  |  |  |  |  |  |  |
| CNC(=O)c1cc(Oc2ccc(NC(=O)Nc3ccc(Cl)c(C(F)(F)F)c3)cc2)ccn1 [sorafenib] |  | statistically significant reduction in tumor growth | statistically significant reduction in tumor growth | statistically significant reduction in tumor growth | did not significantly reduce tumor growth | initial drop in body weight with a later gain in overall body weight | statistically significant reduction in tumor luminescence | statistically significant reduction in tumor luminescence | statistically significant reduction in tumor growth | Statistically significant reductions in weight gain | initial drop in body weight |
